Measurements taken from patent US20180296630A1, “METHODS AND COMPOSITIONS FOR PREVENTING OR TREATING OPHTHALMIC CONDITIONS” (Stealth BioTherapeutics Corp, priority 2012, published 2018).

Legend:
HTM cells = test: TMRM fluorescence (mitochondrial membrane potential), acute H2O2 injury, FACS, HTM cells; type: cell-based, human; conditions: n=4
Source text: Methods to measure mitochondrial membrane potential using TMRM useful in the studies of the present invention have been described by Andrea Rasola and Massimo Geuna, A flow cytometry assay simultaneously detects independent apoptotic parameters, Cytometry 45:151-157, 2001; Mitoprobe™ JC-1 Kit for Flow Cytometry, Molecular Probes, Invitrogen, USA.
The mitochondrial membrane potential (Δψm) of HTM and GTM cells was investigated when those cells were exposed to hydrogen peroxide prior to administration of D-Arg-2′,6′-Dmt-Lys-Phe-NH2. First, the mitochondrial membrane potential was measured using confocal microscopy of cells labeled with tetramethylrhodamine methyl ester (TMRM, 500 nM×30 min) (FIG. 15). The mitochondrial membrane potential was also measured using flow cytometry (FIGS. 16-17) by labeling cells with the mitochondrion-selective probe tetramethylrhodamine methyl ester (TMRM, 500 nM×30 min).
The effects of D-Arg-2′,6′-Dmt-Lys-Phe-NH2 at mitigating acute oxidative injury in GTM and HTM cells was investigated. […] The percentage of fluorescence intensity compared to GTM control in H2O2, D-Arg-2′,6′-Dmt-Lys-Phe-NH2 10^−6M, D-Arg-2′,6′-Dmt-Lys-Phe-NH2 10^−7M, D-Arg-2′,6′-Dmt-Lys-Phe-NH2 10^−8M were 35.2±2.12%, 56.2±4.04%, 50.3±4.46%, 47.5±2.82% respectively, n=4; the HTM groups were 37.4±0.725%, 57.7±1.80%, 50.6±3.06%, 49.4±2.27% respectively, n=4. ** means P<0.01 compared to GTM H2O2 group; * means P<0.05 compared to GTM H2O2 group; ▴ ▴ ▴ means P<0.001 compared to HTM H2O2 group.

GTM cells = test: Intracellular ROS production, acute H2O2 injury, FACS, GTM cells; type: cell-based, human; conditions: n=3
Source text: The percentage of intracellular ROS production compared to GTM control in GTM H2O2, D-Arg-2′,6′-Dmt-Lys-Phe-NH2 10^−6M, D-Arg-2′,6′-Dmt-Lys-Phe-NH2 10^−7M, D-Arg-2′,6′-Dmt-Lys-Phe-NH2 10^−8M groups were 146.0±2.27%, 84.5±8.75%, 102.0±5.69%, 133.0±5.17% respectively (n=3); the HTM groups were 153.0±3.46%, 79±2.39%, 91.8±3.49%, 129.0±8.24% respectively (n=4). P<0.001 GTM and HTM H2O2 Group compared to control; *** means P<0.001 compared to GTM H2O2 group; ▴ ▴ ▴ Means P<0.001 compared to HTM H2O2 group; ▴ ▴ means P<0.01 compared to HTM H2O2 group.

CNV mouse model = test: Laser-induced choroidal neovascularization (CNV) mouse model; type: in vivo, C57BL/6 male mice; conditions: one week after laser
Source text: CNV were induced in the eye with laser burns. Methods useful in the present studies have been described by Reich, Mol Vis 2003; 9:210-216.
Briefly, five to six-week-old C57BL/6 male mice were anesthetized with chloral hydrate and the pupils were dilated with tropicamide. With a coverslip used as a contact lens, four laser spots (532 nm, 260 mw, 0.01 s, 50 μm; Novus Spectra, Lumenis, USA) were applied to the fundus in a circle around the optic disc in the right eye. Daily intraperitoneal injections of 1 mg/kg, 9 mg/kg D-Arg-2′,6′-Dmt-Lys-Phe-NH2 (D-Arg-2′,6′-Dmt-Lys-Phe-NH2) or vehicle were started the day prior to laser photocoagulation.
After one week, mice were deeply anaesthetized and perfused through the left ventricle with 1 ml (50 mg/ml) of PB S-buffered fluorescein-dextran. Eyes were enucleated and fixed in 4% paraformaldehyde for 2 h. The eyes were sectioned at the equator, and the anterior half and retina were removed. The posterior eye segment containing the sclera and choroid was dissected into quarters by four to five radial cuts and mounted on a slide. All flatmounts were examined by a fluorescence microscope (AxioCam MRC; Carl Zeiss). […]
There were 48 locations of neovascularization in each group. The area of neovascularization was calculated using IMAGE-PROPLUS6.0 software. […]

HFD/STZ diabetic rats = test: Lens opacity (cataract) in HFD/STZ rat model; type: in vivo, Sprague-Dawley rat; conditions: for Percentage of opacity / Percentage of severe opacity / Turbidity degree + (mildly opaque), number in group / Turbidity degree ++ (opaque), number in group / Turbidity degree +++ (moderately opaque), number in group / Turbidity degree ++++ (severely opaque), number in group / Turbidity degree − (transparent), number in group: HFD/STZ rat model
Protocol: (§1) A rat model of diabetes was established by combination of 6-week HFD and low dose of STZ (30 mg/kg) injection or a single high dose of STZ (65 mg/kg) in SD rats. See generally, K. Srinivasan, B. Viswanad, Lydia Asrat, C. L. Kaul and P. Ramarao, Combination of high-fat diet-fed and low-dose streptozotocin-treated rat: A model for type 2 diabetes and pharmacological screening, Pharmacological Research, 52(4): 313-320, 2005. Rats of the same batch fed with normal chow (NRC) were used as a control.

[1] = tested on: STZ and HFD/STZ diabetic rats; test: Lens epithelium changes in diabetic SD rats; type: in vivo, Sprague-Dawley rat; conditions: STZ rat model and HFD/STZ rat model
Protocol: as §1
The effect of the aromatic cationic peptides on lens epithelium in the SD rat model was investigated. Administration of D-Arg-2′,6′-Dmt-Lys-Phe-NH2 reduced epithelial cellular changes in both STZ rat model (FIG. 8) and HFD/STZ rat model (FIG. 9).

D-Arg-2′,6′-Dmt-Lys-Phe-NH2
percentage of TMRM fluorescence intensity compared to control (HTM cells; 10^−6M): 57.7±1.80%
percentage of TMRM fluorescence intensity compared to control (HTM cells; 10^−7M): 50.6±3.06%
percentage of TMRM fluorescence intensity compared to control (HTM cells; 10^−8M): 49.4±2.27%
percentage of intracellular ROS production compared to GTM control (GTM cells; 10^−6M): 84.5±8.75%
percentage of intracellular ROS production compared to GTM control (GTM cells; 10^−7M): 102.0±5.69%
percentage of intracellular ROS production compared to GTM control (GTM cells; 10^−8M): 133.0±5.17%
area of neovascularization (CNV mouse model; 1 mg/kg daily intraperitoneal): 0.0068±0.0025
area of neovascularization (CNV mouse model; 9 mg/kg daily intraperitoneal): 0.0067±0
cataract formation in the lenses of diabetic rats (HFD/STZ diabetic rats; HFD/STZ and STZ models (FIGS. 6 and 7, Tables 13 and 14)): prevention or reversal of cataract formation
Percentage of opacity (HFD/STZ diabetic rats; 1 mg (Table 9: 1 mg/kg s.c.)): 67.7%
Percentage of severe opacity (HFD/STZ diabetic rats; 1 mg (Table 9: 1 mg/kg s.c.)): 0%
Turbidity degree + (mildly opaque), number in group (HFD/STZ diabetic rats; 1 mg (Table 9: 1 mg/kg s.c.)): 1
Turbidity degree ++ (opaque), number in group (HFD/STZ diabetic rats; 1 mg (Table 9: 1 mg/kg s.c.)): 1
Turbidity degree +++ (moderately opaque), number in group (HFD/STZ diabetic rats; 1 mg (Table 9: 1 mg/kg s.c.)): 0
Turbidity degree ++++ (severely opaque), number in group (HFD/STZ diabetic rats; 1 mg (Table 9: 1 mg/kg s.c.)): 0
Turbidity degree − (transparent), number in group (HFD/STZ diabetic rats; 1 mg (Table 9: 1 mg/kg s.c.)): 1
Percentage of opacity (HFD/STZ diabetic rats; 3 mg (Table 9: 3 mg/kg s.c.)): 20.0%
Percentage of severe opacity (HFD/STZ diabetic rats; 3 mg (Table 9: 3 mg/kg s.c.)): 20.0%
Turbidity degree + (mildly opaque), number in group (HFD/STZ diabetic rats; 3 mg (Table 9: 3 mg/kg s.c.)): 1
Turbidity degree ++ (opaque), number in group (HFD/STZ diabetic rats; 3 mg (Table 9: 3 mg/kg s.c.)): 0
Turbidity degree +++ (moderately opaque), number in group (HFD/STZ diabetic rats; 3 mg (Table 9: 3 mg/kg s.c.)): 0
Turbidity degree ++++ (severely opaque), number in group (HFD/STZ diabetic rats; 3 mg (Table 9: 3 mg/kg s.c.)): 1
Turbidity degree − (transparent), number in group (HFD/STZ diabetic rats; 3 mg (Table 9: 3 mg/kg s.c.)): 3
Percentage of opacity (HFD/STZ diabetic rats; 10 mg (Table 9: 10 mg/kg s.c.)): 14.3%
Percentage of severe opacity (HFD/STZ diabetic rats; 10 mg (Table 9: 10 mg/kg s.c.)): 0%
Turbidity degree + (mildly opaque), number in group (HFD/STZ diabetic rats; 10 mg (Table 9: 10 mg/kg s.c.)): 1
Turbidity degree ++ (opaque), number in group (HFD/STZ diabetic rats; 10 mg (Table 9: 10 mg/kg s.c.)): 0
Turbidity degree +++ (moderately opaque), number in group (HFD/STZ diabetic rats; 10 mg (Table 9: 10 mg/kg s.c.)): 0
Turbidity degree ++++ (severely opaque), number in group (HFD/STZ diabetic rats; 10 mg (Table 9: 10 mg/kg s.c.)): 0
Turbidity degree − (transparent), number in group (HFD/STZ diabetic rats; 10 mg (Table 9: 10 mg/kg s.c.)): 6
epithelial cellular changes of the lens epithelium [1]: reduced
